Assay results from EP0842933B1, “NOVEL NAPHTHYRIDINE DERIVATIVES” (SUMITOMO PHARMACEUTICALS COMPANY, LIMITED, priority 1995, dated 1996).

Tests used:
[1] = tested on: ACAT; test: Assay of ACAT inhibitory activity in a specimen prepared from rabbit liver; type: biochemical, New Zealand white rabbit; details: enzyme specimen from liver of cholesterol-fed rabbit, [1-^14C]oleoyl-CoA and endogenous cholesterol
Method: 1. Assay of ACAT inhibitory activity in a specimen prepared from rabbit liver
An enzyme specimen ACAT was prepared according to the method disclosed in the literature: J. Lipid. Research, 30, 681-690, 1989, from the liver of New Zealand white rabbit which had been fed with 1 % cholesterol feed for one month. The ACAT activity was determined according to the method disclosed in the literature: J. Lipid Research. 24, 1127-1134, 1983, i.e., using radioactive [1-^14C]oleoyl-CoA and endogenous cholesterol contained in the liver microsome, and calculated from the radioactivity of the labeled cholesterol oleate.

[2] = target: T1, ACAT (Rattus norvegicus, UniProt O70536); test: Assay of ACAT inhibitory activity in the macrophage derived from rat peritoneal; type: cell-based; details: 10^-6 M, radioactive oleic acid and exogenous cholesterol in liposome, read-out: ACAT inhibitory rate (%) 10^-6 M
T1 construct: endogenous in cells; host or cells: rat peritoneal macrophages (primary cells)
T1 sequence (O70536 1-545): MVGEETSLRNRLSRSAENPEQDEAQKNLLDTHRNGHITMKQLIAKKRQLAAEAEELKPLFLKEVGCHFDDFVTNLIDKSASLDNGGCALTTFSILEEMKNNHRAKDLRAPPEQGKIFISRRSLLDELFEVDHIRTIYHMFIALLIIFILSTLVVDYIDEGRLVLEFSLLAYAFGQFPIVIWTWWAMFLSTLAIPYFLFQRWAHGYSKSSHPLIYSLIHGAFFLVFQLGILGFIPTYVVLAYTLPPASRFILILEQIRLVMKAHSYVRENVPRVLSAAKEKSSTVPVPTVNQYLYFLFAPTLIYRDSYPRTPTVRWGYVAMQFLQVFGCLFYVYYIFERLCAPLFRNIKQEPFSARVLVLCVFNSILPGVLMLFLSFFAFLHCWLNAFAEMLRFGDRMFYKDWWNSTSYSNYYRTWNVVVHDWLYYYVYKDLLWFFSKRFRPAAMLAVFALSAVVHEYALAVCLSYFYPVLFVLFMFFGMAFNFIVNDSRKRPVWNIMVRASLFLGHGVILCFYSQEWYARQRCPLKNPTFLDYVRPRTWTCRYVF
Method: 2. Assay of ACAT inhibitory activity in the macrophage derived from rat peritoneal
The rat peritoneal-derived macrophage was prepared according to the method disclosed in the literature: Biochimica et Biophysica Acta, 1126, 73-80, 1992. The ACAT activity was determined by a modified method of the method disclosed in the above literature: Biochimica et Biophysica Acta, 1126, 73-80, 1992, i.e., using radioactive [9,10-H]oleic acid and exogenous cholesterol contained in the liposome which was re-constituted according to the method disclosed in the literature: Biochimica Biophysica Acta, 1213, 127-134, 1994, and calculated from the labeled cholesterolyl oleate.

| inhibition at 1 µM [2] [%] | SMILES | ACAT inhibitory rate (%) 10^-6 M [1] [%] |
| --- | --- | --- |
| – | CC(C)c1cccc(C(C)C)c1NC(=O)Nc1c(-c2ccccc2Cl)c2ccncc2n(C)c1=O [Example 6, N-[1-methyl-4-(2-chlorophenyl)-1,2-dihydro-2-oxo-1,7-naphthyridin-3-yl]-N'-(2,6-diisopropylphenyl)urea] | 82 |
| 94 | COc1cccc(-c2c(NC(=O)Nc3c(C(C)C)cccc3C(C)C)c(=O)n(C)c3ncccc23)c1 [Example 7, N-[1-methyl-4-(3-methoxyphenyl)-1,2-dihydro-2-oxo-1,8-naphthyridin-3-yl]-N'-(2,6-diisopropylphenyl)urea] | – |
| 88 | CC(C)c1cccc(C(C)C)c1NC(=O)Nc1c(-c2ccccc2Cl)c2cccnc2n(C)c1=O [Example 4, N-[1-methyl-4-(2-chlorophenyl)-1,2-dihydro-2-oxo-1,8-naphthyridin-3-yl]-N'-(2,6-diisopropylphenyl)urea] | 87 |
